Measured values taken from ChEMBL document CHEMBL1201862, “PubChem BioAssay data set” (2004).
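Protocol summary: plate cells (96-well), add compound at 5 concentrations, incubate 48 h, interpolate endpoints linearly. Here, GI50 denotes the concentration required for 50% inhibition of growth.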 Activity calls are given as the source filed them. Cut-off read from the data, not from the text of the source: active = GI50 up to about 1.1 µM and inactive = higher.

Legend:
Assay in all cases: NCI anticancer screen, dose series, 48 h
[1] = system: HT-29
[2] = system: U-251
[3] = system: HCT-15
[4] = system: Malme-3M
[5] = system: 786-0
[6] = system: SNB-19
[7] = system: DU-145
[8] = system: COLO 205
[9] = system: MDA-MB-231
[10] = system: SF-295
[11] = system: CCRF-CEM
[12] = system: Hs-578T
[13] = system: UACC-62
[14] = system: SF-539
[15] = system: MDA-MB-435
[16] = system: NCI-H226
[17] = system: A498
[18] = system: SNB-75
[19] = system: T47D
[20] = system: OVCAR-5

## C=C(Br)CN(CC(=C)Br)C(C)=O
[1]
  GI50: > 100 µM (inactive)
[2]
  GI50: > 100 µM (inactive)
[3]
  GI50: > 100 µM
[4]
  GI50: > 100 µM (inactive)
[5]
  GI50: > 100 µM (inactive)
[6]
  GI50: 78.9 µM (inactive)
[7]
  GI50: > 100 µM (inactive)
[8]
  GI50: > 100 µM (inactive)
[9]
  GI50: > 100 µM (inactive)
[10]
  GI50: > 100 µM (inactive)
[11]
  GI50: > 100 µM (inactive)
[12]
  GI50: > 100 µM (inactive)
[13]
  GI50: > 100 µM (inactive)
[14]
  GI50: > 100 µM (inactive)
[15]
  GI50: > 100 µM (inactive)
[16]
  GI50: > 100 µM (inactive)
[17]
  GI50: > 100 µM (inactive)
[18]
  GI50: > 100 µM (inactive)
[19]
  GI50: > 100 µM (inactive)
[20]
  GI50: > 100 µM (inactive)

## CN(C)c1ccc(C2SCC(=O)N2c2nc3cc4sc(N5C(=O)CSC5c5ccc(N(C)C)cc5)nc4cc3s2)cc1 (configuration not stated)
[1]
  GI50: 17 µM (inactive)
[2]
  GI50: 30.7 µM (inactive)
[3]
  GI50: 8.87 µM
[4]
  GI50: > 100 µM (inactive)
[5]
  GI50: > 100 µM (inactive)
[6]
  GI50: 41.4 µM (inactive)
[7]
  GI50: 13.2 µM (inactive)
[8]
  GI50: 3.73 µM (inactive)
[9]
  GI50: > 51.8 µM (inactive)
[10]
  GI50: 46.6 µM (inactive)
[11]
  GI50: 3.41 µM (inactive)
[12]
  GI50: 47.2 µM (inactive)
[13]
  GI50: > 72.3 µM (inactive)
[14]
  GI50: 51.5 µM (inactive)
[15]
  GI50: 28 µM (inactive)
[16]
  GI50: 7.62 µM (inactive)
[17]
  GI50: 27.9 µM (inactive)
[18]
  GI50: > 90.6 µM (inactive)
[19]
  GI50: 31.6 µM (inactive)
[20]
  GI50: > 94 µM (inactive)

## O=C1C(=O)c2c(oc(=O)c3ccccc23)-c2ccccc21
[1]
  GI50: 17.5 µM (inactive)
[2]
  GI50: > 25 µM (inactive)
[3]
  GI50: 17.6 µM
[4]
  GI50: 8.93 µM (inactive)
[5]
  GI50: > 25 µM (inactive)
[6]
  GI50: > 25 µM (inactive)
[7]
  GI50: > 25 µM (inactive)
[8]
  GI50: > 25 µM (inactive)
[9]
  GI50: > 25 µM (inactive)
[10]
  GI50: > 25 µM (inactive)
[11]
  GI50: > 25 µM (inactive)
[12]
  GI50: > 25 µM (inactive)
[13]
  GI50: > 25 µM (inactive)
[14]
  GI50: > 25 µM (inactive)
[15]
  GI50: 6.75 µM (inactive)
[16]
  GI50: > 25 µM (inactive)
[17]
  GI50: > 25 µM (inactive)
[18]
  GI50: 16.6 µM (inactive)
[19]
  GI50: > 25 µM (inactive)
[20]
  GI50: > 25 µM (inactive)

## Cn1ncc2c(Nc3cccc(Cl)c3)nc(Nc3cccc(Cl)c3)nc21
[1]
  GI50: 3.87 µM (inactive)
[2]
  GI50: 8.04 µM (inactive)
[3]
  GI50: 4.43 µM
[4]
  GI50: 17.6 µM (inactive)
[5]
  GI50: 2.43 µM (inactive)
[6]
  GI50: 19.1 µM (inactive)
[7]
  GI50: 14.6 µM (inactive)
[8]
  GI50: > 24.7 µM (inactive)
[9]
  GI50: 16.7 µM (inactive)
[10]
  GI50: 5.47 µM (inactive)
[11]
  GI50: 1.15 µM (inactive)
[12]
  GI50: 12 µM (inactive)
[13]
  GI50: 13.7 µM (inactive)
[14]
  GI50: 19.9 µM (inactive)
[15]
  GI50: 10.9 µM (inactive)
[16]
  GI50: > 48.3 µM (inactive)
[17]
  GI50: 5.98 µM (inactive)
[18]
  GI50: 7.93 µM (inactive)
[19]
  GI50: 10.2 µM (inactive)
[20]
  GI50: 16.1 µM (inactive)

## CN(C)Cc1cc(C(=O)/C=C/c2ccc(F)cc2)cc(CN(C)C)c1O
[1]
  GI50: 23 µM (inactive)
[2]
  GI50: 24.4 µM (inactive)
[3]
  GI50: 7.78 µM
[4]
  GI50: 17.7 µM (inactive)
[5]
  GI50: 37.7 µM (inactive)
[6]
  GI50: 25.4 µM (inactive)
[7]
  GI50: 42.2 µM (inactive)
[9]
  GI50: 31 µM (inactive)
[10]
  GI50: 14 µM (inactive)
[11]
  GI50: 17 µM (inactive)
[12]
  GI50: 24.7 µM (inactive)
[13]
  GI50: 3.14 µM (inactive)
[14]
  GI50: 21.1 µM (inactive)
[15]
  GI50: 16.3 µM (inactive)
[16]
  GI50: 38.6 µM (inactive)
[17]
  GI50: 24.5 µM (inactive)
[18]
  GI50: 22.9 µM (inactive)
[19]
  GI50: 18 µM (inactive)
[20]
  GI50: 57.7 µM (inactive)

## CC(C)=CCc1c(O)c(CC=C(C)C)c2oc(-c3ccc(O)cc3O)c(CC=C(C)C)c(=O)c2c1O
[1]
  GI50: 7.96 µM (inactive)
[2]
  GI50: 9.12 µM (inactive)
[3]
  GI50: 5.47 µM
[4]
  GI50: 16.3 µM (inactive)
[5]
  GI50: 8.91 µM (inactive)
[6]
  GI50: 12.6 µM (inactive)
[7]
  GI50: 12.4 µM (inactive)
[8]
  GI50: 27.1 µM (inactive)
[9]
  GI50: 12.6 µM (inactive)
[10]
  GI50: 7.45 µM (inactive)
[11]
  GI50: 2.1 µM (inactive)
[12]
  GI50: 7.76 µM (inactive)
[13]
  GI50: 7.14 µM (inactive)
[14]
  GI50: 16.3 µM (inactive)
[15]
  GI50: 4.52 µM (inactive)
[16]
  GI50: 23 µM (inactive)
[17]
  GI50: 13.8 µM (inactive)
[18]
  GI50: 10.6 µM (inactive)
[19]
  GI50: 3.97 µM (inactive)
[20]
  GI50: 14.8 µM (inactive)

## CC(=O)Nc1ccc(S(=O)(=O)N=S(C)C)cc1
[1]
  GI50: > 100 µM (inactive)
[2]
  GI50: > 100 µM (inactive)
[3]
  GI50: > 100 µM
[4]
  GI50: > 100 µM (inactive)
[5]
  GI50: > 100 µM (inactive)
[6]
  GI50: > 100 µM (inactive)
[7]
  GI50: > 100 µM (inactive)
[8]
  GI50: > 100 µM (inactive)
[9]
  GI50: > 100 µM (inactive)
[10]
  GI50: > 100 µM (inactive)
[11]
  GI50: > 100 µM (inactive)
[12]
  GI50: > 100 µM (inactive)
[13]
  GI50: > 100 µM (inactive)
[14]
  GI50: > 100 µM (inactive)
[15]
  GI50: > 100 µM (inactive)
[16]
  GI50: > 100 µM (inactive)
[17]
  GI50: > 100 µM (inactive)
[18]
  GI50: > 100 µM (inactive)
[19]
  GI50: > 100 µM (inactive)
[20]
  GI50: > 100 µM (inactive)

## Cc1ccc(N2CN3OC(=O)N(c4ccccc4)[C@@]3(c3ccccc3)C2)cc1
[1]
  GI50: 25.1 µM (inactive)
[2]
  GI50: 30.5 µM (inactive)
[3]
  GI50: 23.2 µM
[4]
  GI50: 34 µM (inactive)
[5]
  GI50: 44.5 µM (inactive)
[6]
  GI50: 92 µM (inactive)
[7]
  GI50: 48.4 µM (inactive)
[8]
  GI50: 36.1 µM (inactive)
[9]
  GI50: 26.9 µM (inactive)
[10]
  GI50: 17.5 µM (inactive)
[11]
  GI50: 34.4 µM (inactive)
[12]
  GI50: 87.9 µM (inactive)
[13]
  GI50: 21.2 µM (inactive)
[14]
  GI50: 29.4 µM (inactive)
[15]
  GI50: 26.4 µM (inactive)
[16]
  GI50: 27 µM (inactive)
[17]
  GI50: 32.1 µM (inactive)
[18]
  GI50: 36.6 µM (inactive)
[19]
  GI50: 14.2 µM (inactive)
[20]
  GI50: > 100 µM (inactive)

## CC12Nc3c(Cl)cc(Cl)cc3N1C(=O)c1ccccc12 (configuration not stated)
[1]
  GI50: > 100 µM (inactive)
[2]
  GI50: > 100 µM (inactive)
[3]
  GI50: > 100 µM
[4]
  GI50: > 100 µM (inactive)
[5]
  GI50: > 100 µM (inactive)
[7]
  GI50: > 100 µM (inactive)
[8]
  GI50: > 100 µM (inactive)
[9]
  GI50: > 100 µM (inactive)
[10]
  GI50: > 100 µM (inactive)
[11]
  GI50: > 100 µM (inactive)
[12]
  GI50: 48 µM (inactive)
[13]
  GI50: > 100 µM (inactive)
[14]
  GI50: > 100 µM (inactive)
[15]
  GI50: > 100 µM (inactive)
[16]
  GI50: 68.7 µM (inactive)
[17]
  GI50: 18.5 µM (inactive)
[18]
  GI50: > 100 µM (inactive)
[19]
  GI50: > 100 µM (inactive)
[20]
  GI50: > 100 µM (inactive)

## CSc1c(C#N)c(N)n(-c2ccc(C)cc2)c(=O)c1C#N
[1]
  GI50: > 100 µM (inactive)
[2]
  GI50: > 100 µM (inactive)
[3]
  GI50: > 100 µM
[4]
  GI50: > 100 µM (inactive)
[5]
  GI50: > 100 µM (inactive)
[6]
  GI50: > 100 µM (inactive)
[7]
  GI50: > 100 µM (inactive)
[8]
  GI50: > 100 µM (inactive)
[9]
  GI50: > 100 µM (inactive)
[11]
  GI50: 94.8 µM (inactive)
[12]
  GI50: > 100 µM (inactive)
[13]
  GI50: > 100 µM (inactive)
[14]
  GI50: > 100 µM (inactive)
[15]
  GI50: > 100 µM (inactive)
[16]
  GI50: 70 µM (inactive)
[17]
  GI50: 50.8 µM (inactive)
[18]
  GI50: > 100 µM (inactive)
[19]
  GI50: > 100 µM (inactive)
[20]
  GI50: > 100 µM (inactive)
